# Tests used:
# [1] = system: HCT-116; experiment: NCI60 one-dose screen (10 μM), Colon Cancer; type: cell-based; details: Homo sapiens; 10 μM; HCT-116, Colon Cancer; read-out: Growth percent rate
# [2] = system: SW-620; experiment: NCI60 one-dose screen (10 μM), Colon Cancer; type: cell-based; details: Homo sapiens; 10 μM; SW-620, Colon Cancer; read-out: Growth percent rate
# [3] = system: SNB-75; experiment: NCI60 one-dose screen (10 μM), CNS Cancer; type: cell-based, human; details: Homo sapiens; 10 μM; SNB-75, CNS Cancer; read-out: Growth percent rate
# [4] = system: NCI-H460; experiment: NCI60 one-dose screen (10 μM), Non-small Cell Lung Cancer; type: cell-based; details: Homo sapiens; 10 μM; NCI-H460, Non-small Cell Lung Cancer; read-out: Growth percent rate
# [5] = system: OVCAR-8; experiment: NCI60 one-dose screen (10 μM), Ovarian Cancer; type: cell-based; details: Homo sapiens; 10 μM; OVCAR-8, Ovarian Cancer; read-out: Growth percent rate
# [6] = system: HOP-62; experiment: NCI60 one-dose screen (10 μM), Non-small Cell Lung Cancer; type: cell-based; details: Homo sapiens; 10 μM; HOP-62, Non-small Cell Lung Cancer; read-out: Growth percent rate
# [7] = system: A549/ATCC; experiment: as above; type: cell-based; details: Homo sapiens; 10 μM; A549/ATCC, Non-small Cell Lung Cancer; read-out: Growth percent rate
# [8] = system: NCI-H23; experiment: as above; type: cell-based; details: Homo sapiens; 10 μM; NCI-H23, Non-small Cell Lung Cancer; read-out: Growth percent rate
# [9] = system: EKVX; experiment: as above; type: cell-based; details: Homo sapiens, 10 μM, Non-small Cell Lung Cancer, read-out: Growth percent rate
# [10] = system: SK-MEL-2; experiment: NCI60 one-dose screen (10 μM), Melanoma; type: cell-based; details: Homo sapiens; 10 μM; SK-MEL-2, Melanoma; read-out: Growth percent rate
# [11] = system: HCC-2998; experiment: NCI60 one-dose screen (10 μM), Colon Cancer; type: cell-based; details: Homo sapiens; 10 μM; HCC-2998, Colon Cancer; read-out: Growth percent rate
# [12] = system: IGROV1; experiment: NCI60 one-dose screen (10 μM), Ovarian Cancer; type: cell-based; details: Homo sapiens, IGROV-1; 10 μM; IGROV1, Ovarian Cancer; read-out: Growth percent rate
# [13] = system: 60 human tumor cell lines (NCI60); experiment: NCI60 one-dose screen (10 μM), whole panel; type: cell-based; details: for antiproliferative effect (in words): 10 μM one-dose, NCI60; for activity at 10 µM: mean over 60 human cancer cell lines, read-out: Growth percent rate, Mean
# [14] = system: HT29; experiment: NCI60 one-dose screen (10 μM), Colon Cancer; type: cell-based; details: Homo sapiens, HT-29; 10 μM; HT29, Colon Cancer; read-out: Growth percent rate
# [15] = system: CAKI-1; experiment: NCI60 one-dose screen (10 μM), Renal Cancer; type: cell-based; details: Homo sapiens; 10 μM; CAKI-1, Renal Cancer; read-out: Growth percent rate
# [16] = system: SNB-19; experiment: NCI60 one-dose screen (10 μM), CNS Cancer; type: cell-based; details: Homo sapiens; 10 μM; SNB-19, CNS Cancer; read-out: Growth percent rate
# [17] = system: U251; experiment: NCI60 one-dose screen (10 μM), CNS Cancer; type: cell-based; details: Homo sapiens, U-251; 10 μM; U251, CNS Cancer; read-out: Growth percent rate
# [18] = system: MOLT-4; experiment: NCI60 one-dose screen (10 μM), Leukemia; type: cell-based, human; details: Homo sapiens; 10 μM; MOLT-4, Leukemia; read-out: Growth percent rate
# [19] = system: TK-10; experiment: NCI60 one-dose screen (10 μM), Renal Cancer; type: cell-based; details: Homo sapiens; 10 μM; TK-10, Renal Cancer; read-out: Growth percent rate
# [20] = system: NCI-H522; experiment: NCI60 one-dose screen (10 μM), Non-small Cell Lung Cancer; type: cell-based; details: Homo sapiens; 10 μM; NCI-H522, Non-small Cell Lung Cancer; read-out: Growth percent rate
# [21] = system: KM12; experiment: NCI60 one-dose screen (10 μM), Colon Cancer; type: cell-based, human; details: Homo sapiens; 10 μM; KM12, Colon Cancer; read-out: Growth percent rate
# [22] = system: 786–0; experiment: NCI60 one-dose screen (10 μM), Renal Cancer; type: cell-based; details: Homo sapiens; 10 μM; 786-0, Renal Cancer; read-out: Growth percent rate
# [23] = system: A498; experiment: NCI60 one-dose screen (10 μM), Renal Cancer; type: cell-based; details: Homo sapiens; 10 μM; A498, Renal Cancer; read-out: Growth percent rate
# [24] = system: OVCAR-3; experiment: NCI60 one-dose screen (10 μM), Ovarian Cancer; type: cell-based; details: Homo sapiens; 10 μM; OVCAR-3, Ovarian Cancer; read-out: Growth percent rate
# [25] = system: SF-268; experiment: NCI60 one-dose screen (10 μM), CNS Cancer; type: cell-based; details: Homo sapiens; 10 μM; SF-268, CNS Cancer; read-out: Growth percent rate
# [26] = system: RPMI-8226; experiment: NCI60 one-dose screen (10 μM), Leukemia; type: cell-based; details: Homo sapiens; 10 μM; RPMI-8226, Leukemia; read-out: Growth percent rate
# [27] = system: MDA-MB-435; experiment: NCI60 one-dose screen (10 μM), Melanoma; type: cell-based; details: Homo sapiens; 10 μM; MDA-MB-435, Melanoma; read-out: Growth percent rate
# [28] = system: CCRF-CEM; experiment: NCI60 one-dose screen (10 μM), Leukemia; type: cell-based; details: Homo sapiens, 10 μM, Leukemia, read-out: Growth percent rate
# [29] = system: DU-145; experiment: NCI60 one-dose screen (10 μM), Prostate Cancer; type: cell-based; details: Homo sapiens; 10 μM; DU-145, Prostate Cancer; read-out: Growth percent rate
# [30] = system: SF-295; experiment: NCI60 one-dose screen (10 μM), CNS Cancer; type: cell-based; details: Homo sapiens; 10 μM; SF-295, CNS Cancer; read-out: Growth percent rate
# [31] = system: SN12C; experiment: NCI60 one-dose screen (10 μM), Renal Cancer; type: cell-based; details: Homo sapiens, 10 μM, Renal Cancer, read-out: Growth percent rate
# [32] = system: OVCAR-4; experiment: NCI60 one-dose screen (10 μM), Ovarian Cancer; type: cell-based; details: Homo sapiens; 10 μM; OVCAR-4, Ovarian Cancer; read-out: Growth percent rate
# [33] = system: M14; experiment: NCI60 one-dose screen (10 μM), Melanoma; type: cell-based; details: Homo sapiens; 10 μM; M14, Melanoma; read-out: Growth percent rate
# [34] = system: K-562; experiment: NCI60 one-dose screen (10 μM), Leukemia; type: cell-based; details: Homo sapiens, K562; 10 μM; K-562, Leukemia; read-out: Growth percent rate
# [35] = system: ACHN; experiment: NCI60 one-dose screen (10 μM), Renal Cancer; type: cell-based; details: Homo sapiens, 10 μM, Renal Cancer, read-out: Growth percent rate
# [36] = system: UACC-257; experiment: NCI60 one-dose screen (10 μM), Melanoma; type: cell-based; details: Homo sapiens; 10 μM; UACC-257, Melanoma; read-out: Growth percent rate
# [37] = system: MALME-3M; experiment: NCI60 one-dose screen (10 μM), Melanoma; type: cell-based; details: Homo sapiens; 10 μM; MALME-3M, Melanoma; read-out: Growth percent rate
# [38] = system: HL-60(TB); experiment: NCI60 one-dose screen (10 μM), Leukemia; type: cell-based; details: Homo sapiens; 10 μM; HL-60(TB), Leukemia; read-out: Growth percent rate
# [39] = system: SK-MEL-28; experiment: NCI60 one-dose screen (10 μM), Melanoma; type: cell-based; details: Homo sapiens; 10 μM; SK-MEL-28, Melanoma; read-out: Growth percent rate
# [40] = system: SK-MEL-5; experiment: NCI60 one-dose screen (10 μM), Melanoma; type: cell-based, human; details: Homo sapiens; 10 μM; SK-MEL-5, Melanoma; read-out: Growth percent rate
# [41] = system: MCF7; experiment: NCI60 one-dose screen (10 μM), Breast Cancer; type: cell-based; details: Homo sapiens; 10 μM; MCF7, Breast Cancer; read-out: Growth percent rate
# [42] = system: NCI-H322M; experiment: NCI60 one-dose screen (10 μM), Non-small Cell Lung Cancer; type: cell-based; details: Homo sapiens, 10 μM, Non-small Cell Lung Cancer, read-out: Growth percent rate
smiles,measurement,setting,value
"CCC12C=CCN3CCC4(c5ccc(OC)cc5N(C)C4C(O)(C(=O)OC)C1OC(=O)CCCBr)C32 (centres unmarked) [Compound 14, 17-(O-4-bromobutanoyl)vindoline]",activity at 10 µM,[1],87%
same,activity at 10 µM,[2],100%
same,activity at 10 µM,[3],92.6%
same,activity at 10 µM,[4],97.8%
same,activity at 10 µM,[5],93.4%
same,activity at 10 µM,[6],101%
same,activity at 10 µM,[7],89.4%
same,activity at 10 µM,[8],93.1%
same,activity at 10 µM,[9],91.2%
same,activity at 10 µM,[10],103%
same,activity at 10 µM,[11],93.8%
same,activity at 10 µM,[12],100%
same,antiproliferative effect (in words),[13],a notable antiproliferative effect was not shown
same,activity at 10 µM,[13],92.5%
same,activity at 10 µM,[14],94.1%
same,activity at 10 µM,[15],80.9%
same,activity at 10 µM,[16],89.3%
same,activity at 10 µM,[17],87.2%
same,activity at 10 µM,[18],76.1%
same,activity at 10 µM,[19],100%
same,activity at 10 µM,[20],79%
same,activity at 10 µM,[21],100%
same,activity at 10 µM,[22],94.3%
same,activity at 10 µM,[23],90.1%
same,activity at 10 µM,[24],99.7%
same,activity at 10 µM,[25],83.2%
same,activity at 10 µM,[26],91.4%
same,activity at 10 µM,[27],104%
same,activity at 10 µM,[28],99.8%
same,activity at 10 µM,[29],99.6%
same,activity at 10 µM,[30],86.9%
same,activity at 10 µM,[31],97.4%
same,activity at 10 µM,[32],83.9%
same,activity at 10 µM,[33],95.7%
same,activity at 10 µM,[34],79.7%
same,activity at 10 µM,[35],99.8%
same,activity at 10 µM,[36],88.4%
same,activity at 10 µM,[37],101%
same,activity at 10 µM,[38],90.5%
same,activity at 10 µM,[39],105%
same,activity at 10 µM,[40],84.3%
same,activity at 10 µM,[41],80.3%
same,activity at 10 µM,[42],101%
"CCC12C=CCN3CCC4(c5ccc(OC)cc5N(C)C4C(O)(C(=O)OC)C1OC(=O)CCC(=O)O)C32 (centres unmarked) [Compound 15, 17-(O-3-carboxypropanoyl)vindoline]",activity at 10 µM,[1],98.6%
same,activity at 10 µM,[2],102%
same,activity at 10 µM,[3],53.4%
same,activity at 10 µM,[4],97.4%
same,activity at 10 µM,[5],91.8%
same,activity at 10 µM,[6],102%
same,activity at 10 µM,[7],94.3%
same,activity at 10 µM,[8],92.5%
same,activity at 10 µM,[9],87.4%
same,activity at 10 µM,[10],100%
same,activity at 10 µM,[11],71%
same,activity at 10 µM,[12],90%
same,antiproliferative effect (in words),[13],a notable antiproliferative effect was not shown
same,activity at 10 µM,[13],91.7%
same,activity at 10 µM,[14],89.9%
same,activity at 10 µM,[15],95.5%
same,activity at 10 µM,[16],94.9%
same,activity at 10 µM,[17],105%
same,activity at 10 µM,[18],106%
same,activity at 10 µM,[19],90.8%
same,activity at 10 µM,[20],84.2%
same,activity at 10 µM,[21],82.8%
same,activity at 10 µM,[22],98.1%
same,activity at 10 µM,[23],90.6%
same,activity at 10 µM,[24],74.9%
same,activity at 10 µM,[25],87.2%
same,activity at 10 µM,[26],84.2%
same,activity at 10 µM,[27],110%
same,activity at 10 µM,[28],105%
same,activity at 10 µM,[29],98.1%
same,activity at 10 µM,[30],113%
same,activity at 10 µM,[31],92.9%
same,activity at 10 µM,[32],80.2%
same,activity at 10 µM,[33],96.5%
same,activity at 10 µM,[34],90.5%
same,activity at 10 µM,[35],102%
same,activity at 10 µM,[36],91.5%
same,activity at 10 µM,[37],90.3%
same,activity at 10 µM,[38],114%
same,activity at 10 µM,[39],86.7%
same,activity at 10 µM,[40],96.8%
same,activity at 10 µM,[41],68.2%
same,activity at 10 µM,[42],73.9%

# Reference: article PMC11277489, “Novel Piperazine Derivatives of Vindoline as Anticancer Agents” (International Journal of Molecular Sciences, 2024)
